Tests used:
[1] = target: Sphingosine 1-phosphate receptor 1 (Homo sapiens, UniProt P21453); assay: Agonist activity at human S1P1 receptor expressed in human EDG1-bla U2OS cells after 18 hrs by beta-arrestin recruitment assay; format: cell-based
[2] = target: T1, Sphingosine 1-phosphate receptor 3 (Homo sapiens, UniProt Q99500); assay: Agonist activity at human S1P3 receptor expressed in human EDG3-bla U2OS cells after 18 hrs by beta-arrestin recruitment assay; format: cell-based
[3] = target: T1, Sphingosine 1-phosphate receptor 3; assay: Partial agonist activity at human S1P3 receptor expressed in human EDG3-bla U2OS cells after 18 hrs by beta-arrestin recruitment assay; format: cell-based
Homo sapiens = species: Homo sapiens; assay: Selectivity ratio of EC50 for human S1P3 receptor to EC50 for human S1P1 receptor
Plasma [4] = assay: Drug level in rat plasma treated with 3 mg/kg, po; format: ADME, organism-based; design: dose 3 mg/kg, route oral; conditions: in vivo
Plasma [5] = assay: Drug metabolism in rat plasma assessed as 2-amino-3-(5-chloro-4-(3-(4-(cyclopentanecarbonyl)piperazin-1-yl)-1,2,4-oxadiazol-5-yl)-2-fluorophenoxy)propyl dihydrogen phosphate formation at 3 mg/kg, po; format: ADME, organism-based; design: dose 3 mg/kg, route oral; conditions: in vivo
Rattus norvegicus = assay: Toxicity in Lewis rat assessed as reduction in circulating lymphocyte count at 3 mg/kg, po after 4 hrs; format: organism-based; design: dose 3 mg/kg, route oral; conditions: in vivo

T1 sequence (Q99500 whole entry): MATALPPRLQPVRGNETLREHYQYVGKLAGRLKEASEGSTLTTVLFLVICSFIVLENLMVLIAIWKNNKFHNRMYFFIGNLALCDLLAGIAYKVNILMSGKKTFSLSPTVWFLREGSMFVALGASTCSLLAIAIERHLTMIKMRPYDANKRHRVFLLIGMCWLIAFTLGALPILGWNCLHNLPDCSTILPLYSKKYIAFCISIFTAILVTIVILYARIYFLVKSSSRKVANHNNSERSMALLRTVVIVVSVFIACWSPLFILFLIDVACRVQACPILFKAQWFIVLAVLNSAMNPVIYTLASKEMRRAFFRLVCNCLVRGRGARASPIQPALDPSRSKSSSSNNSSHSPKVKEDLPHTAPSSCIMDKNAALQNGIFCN
Chain of Sphingosine 1-phosphate receptor 1 (P21453 whole entry): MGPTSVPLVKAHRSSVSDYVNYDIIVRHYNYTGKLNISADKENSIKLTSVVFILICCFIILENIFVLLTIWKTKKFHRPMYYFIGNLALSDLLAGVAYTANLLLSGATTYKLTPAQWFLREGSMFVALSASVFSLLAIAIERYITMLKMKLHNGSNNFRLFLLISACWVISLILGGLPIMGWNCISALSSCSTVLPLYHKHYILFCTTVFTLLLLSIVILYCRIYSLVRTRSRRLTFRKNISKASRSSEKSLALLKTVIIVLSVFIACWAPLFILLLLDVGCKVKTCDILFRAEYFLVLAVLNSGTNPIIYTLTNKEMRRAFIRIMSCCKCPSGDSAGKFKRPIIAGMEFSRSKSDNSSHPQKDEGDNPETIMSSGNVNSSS

SMILES	EC50 [1] [nM]	EC50 [2] [nM]	also measured
N[C@@H](CO)COc1cc(Cl)c(-c2noc(N3CCN(C(=O)c4cccc(Cl)c4)CC3)n2)cc1F	12	> 10000	
N[C@@H](CO)COc1cc(Cl)c(-c2nnc(N3CCN(C(=O)C4CCCC4)CC3)s2)cc1F	0.5	410	%max [3]: 45%
N[C@@H](CO)COc1c(Cl)cc(-c2nc(N3CCN(C(=O)C4CCCC4)CC3)no2)cc1Cl	1600	> 10000	
N[C@@H](CO)COc1c(Cl)cc(-c2nc(N3CCN(C(=O)c4cccc(Cl)c4)CC3)no2)cc1Cl	> 5400	> 10000	
N[C@@H](CO)COc1cc(Cl)c(-c2nnc(N3CCN(C(=O)c4cccc(Cl)c4)CC3)s2)cc1F	2.3	380	%max [3]: 48%
CC1(C)CC(C(=O)N2CCN(c3noc(-c4cc(F)c(OCCO)cc4Cl)n3)CC2)C1	910	> 10000	
CCC(C)(C)C(=O)N1CCN(c2noc(-c3ccccc3OC)n2)CC1	3600		
N[C@H](CO)COc1cc(Cl)c(-c2nc(N3CCN(C(=O)c4cccc(Cl)c4)CC3)no2)cc1F	2400	> 10000	
N[C@@H](CO)COc1cc(Cl)c(-c2nc(N3CCN(C(=O)c4cccc(Cl)c4)CC3)no2)cc1F	4.1	> 10000	
N[C@@H](CO)COc1cc(Cl)c(-c2noc(N3CCN(C(=O)C4CCCC4)CC3)n2)cc1F	55	> 10000	
CC1(C)CC(C(=O)N2CCN(c3noc(-c4cc(F)c(OC[C@@H]5COC(=O)N5)cc4Cl)n3)CC2)C1	> 10000	> 10000	
N[C@H](COc1cc(Cl)c(-c2nc(N3CCN(C(=O)C4CCCC4)CC3)no2)cc1F)COP(=O)(O)O	0.5	940	Ratio EC50 (Homo sapiens): 2000; Drug metabolism (Plasma [4]): metabolite_detected
O=C(O)CCOc1cc(Cl)c(-c2nc(N3CCN(C(=O)C4CCCC4)CC3)no2)cc1F	240	> 10000	
N[C@@H](CO)COc1cc(Cl)c(-c2nc(N3CCN(C(=O)c4ccccn4)CC3)no2)cc1F	92	> 10000	
N[C@H](CO)COc1cc(Cl)c(-c2nc(N3CCN(C(=O)C4CCCC4)CC3)no2)cc1F	420	> 10000	
CCc1cccnc1C(=O)N1CCN(c2noc(-c3cc(F)c(OC[C@@H](N)CO)cc3Cl)n2)CC1	5.3	> 10000	
N[C@@H](CO)COc1cc(Cl)c(-c2nc(N3CCN(C(=O)C4CCCC4)CC3)no2)cc1F	1.7	> 10000	Drug metabolism (Plasma [5]): metabolite_detected; Activity (Rattus norvegicus): Toxic
CC1(C)CC(C(=O)N2CCN(c3noc(-c4cc(F)c(OC[C@@H](O)CO)cc4Cl)n3)CC2)C1	1100	> 10000	
CC1(C)CC(C(=O)N2CCN(c3noc(-c4cc(F)c(OC[C@@H](N)CO)cc4Cl)n3)CC2)C1	3.1	450	%max [3]: 63%

More lines, main results first:

EC50 [1] [nM]	EC50 [2] [nM]	SMILES	also measured
17	> 10000	N[C@@H](CO)COc1cc(Cl)c(-c2nc(N3CCN(C(=O)C4CCC4)CC3)no2)cc1F	
45	> 10000	N[C@@H](CO)COc1cc(Cl)c(-c2noc(C3CCN(C(=O)C4CCCC4)CC3)n2)cc1F	
6.5	> 10000	N[C@@H](CO)COc1cc(Cl)c(-c2nc(N3CCN(C(=O)c4ccccc4)CC3)no2)cc1F	
1300	> 10000	N[C@H](CO)COc1cc(Cl)c(-c2nc(N3CCN(C(=O)C4CCC4)CC3)no2)cc1F	
1200	> 10000	CC1(C)CC(C(=O)N2CCN(c3noc(-c4cc(F)c(OC[C@H](O)CO)cc4Cl)n3)CC2)C1	
46		CCC(C)(C)C(=O)N1CCN(c2noc(-c3cc(F)c(OCC(N)CO)cc3Cl)n2)CC1 (configuration not stated)	
1.2	> 10000	N[C@@H](CO)COc1cc(Cl)c(-c2nc(N3CCN(C(=O)C4CCCCC4)CC3)no2)cc1F	
2700	> 10000	CC1(C)CC(C(=O)N2CCN(c3noc(-c4cc(F)c(OCCC(=O)O)cc4Cl)n3)CC2)C1	
9.8	4700	CC(C)(C(=O)N1CCN(c2noc(-c3cc(F)c(OC[C@@H](N)CO)cc3Cl)n2)CC1)C(F)(F)F	%max [3]: 44%
> 10000	> 10000	CC1(C)CC(C(=O)N2CCN(c3noc(-c4cc(F)c(OCC(=O)O)cc4Cl)n3)CC2)C1	
1100	> 10000	CC1(C)CC(C(=O)N2CCN(c3noc(-c4cc(F)c(OCCCO)cc4Cl)n3)CC2)C1	
2100	> 10000	O=C(O)C1CN(Cc2cc(Cl)c(-c3nc(N4CCN(C(=O)C5CCCC5)CC4)no3)cc2F)C1	
1100	> 10000	C[C@H](O)COc1cc(Cl)c(-c2nc(N3CCN(C(=O)C4CC(C)(C)C4)CC3)no2)cc1F	
> 10000	> 10000	N[C@@H](CO)COc1c(Cl)cc(-c2nc(N3CCN(C(=O)C4CCCCC4)CC3)no2)cc1Cl	

Reference: ChEMBL document CHEMBL3351264, “Piperazinyl-oxadiazoles as selective sphingosine-1-phosphate receptor agonists” (Bioorg Med Chem Lett, 2014)
